Legend:
human BTK = human BTK (Homo sapiens (Human), UniProt Q06187); experiment: BTK kinase inhibitory activity, ADP Glo assay; settings: read-out: BTK IC50, recombinant human BTK, ATP 10 uM
JAK3 = experiment: JAK3-mediated cell assay (HT-2/IL-2 assay), STAT5 phosphorylation; format: cell-based; settings: HT2; STAT5 phosphorylation induced by IL-2 (20 ng/ml) in HT-2 cells, HTRF
Procedure: The inhibitory activities against JAK3 kinase at the cellular level were measured for the compounds prepared in the Examples through in vitro analysis of STAT5 phosphorylation induced by IL-2 stimulation in HT-2 cells. Specifically, STAT5 phosphorylation was analyzed using HTRF® phospho-STAT5 (Tyr694) assay kit (Cisbio, 64AT5PEG), which was purchased from Cisbio. HT-2 cells were cultured for 2 hours in growth factor-free medium. The cultured HT-2 cells were dispensed into 96-well plates by 50 ul so as to be a density of 2.5×10^5 cells/well. The compounds prepared in the previous Examples were prepared so as to be finally a 0.3% DMSO aqueous solution, and HT-2 cells was treated with the compounds for 30 minutes. After the compound treatment, IL-2 was prepared so as to be finally a concentration of 20 ng/ml, and HT-2 cells was treated for 10 minutes. The cells were then disrupted by treating lysis buffers for 30 minutes. The level of STAT5 phosphorylation was measured according to the instructions of HTRF® phospho-STAT5 assay kit, and the inhibitory activity of the compounds according to the invention was calculated. For the analysis of the results of each compound, Microsoft Excel was used, and IC50 values were calculated by SigmaPlot software.

human JAK3 = human JAK3 (Homo sapiens (Human), UniProt P52333); experiment: JAK3 kinase inhibitory activity, ADP Glo assay; settings: read-out: JAK3 IC50, recombinant human JAK3, ATP 5 uM
Sequence of human JAK3 (P52333 whole entry): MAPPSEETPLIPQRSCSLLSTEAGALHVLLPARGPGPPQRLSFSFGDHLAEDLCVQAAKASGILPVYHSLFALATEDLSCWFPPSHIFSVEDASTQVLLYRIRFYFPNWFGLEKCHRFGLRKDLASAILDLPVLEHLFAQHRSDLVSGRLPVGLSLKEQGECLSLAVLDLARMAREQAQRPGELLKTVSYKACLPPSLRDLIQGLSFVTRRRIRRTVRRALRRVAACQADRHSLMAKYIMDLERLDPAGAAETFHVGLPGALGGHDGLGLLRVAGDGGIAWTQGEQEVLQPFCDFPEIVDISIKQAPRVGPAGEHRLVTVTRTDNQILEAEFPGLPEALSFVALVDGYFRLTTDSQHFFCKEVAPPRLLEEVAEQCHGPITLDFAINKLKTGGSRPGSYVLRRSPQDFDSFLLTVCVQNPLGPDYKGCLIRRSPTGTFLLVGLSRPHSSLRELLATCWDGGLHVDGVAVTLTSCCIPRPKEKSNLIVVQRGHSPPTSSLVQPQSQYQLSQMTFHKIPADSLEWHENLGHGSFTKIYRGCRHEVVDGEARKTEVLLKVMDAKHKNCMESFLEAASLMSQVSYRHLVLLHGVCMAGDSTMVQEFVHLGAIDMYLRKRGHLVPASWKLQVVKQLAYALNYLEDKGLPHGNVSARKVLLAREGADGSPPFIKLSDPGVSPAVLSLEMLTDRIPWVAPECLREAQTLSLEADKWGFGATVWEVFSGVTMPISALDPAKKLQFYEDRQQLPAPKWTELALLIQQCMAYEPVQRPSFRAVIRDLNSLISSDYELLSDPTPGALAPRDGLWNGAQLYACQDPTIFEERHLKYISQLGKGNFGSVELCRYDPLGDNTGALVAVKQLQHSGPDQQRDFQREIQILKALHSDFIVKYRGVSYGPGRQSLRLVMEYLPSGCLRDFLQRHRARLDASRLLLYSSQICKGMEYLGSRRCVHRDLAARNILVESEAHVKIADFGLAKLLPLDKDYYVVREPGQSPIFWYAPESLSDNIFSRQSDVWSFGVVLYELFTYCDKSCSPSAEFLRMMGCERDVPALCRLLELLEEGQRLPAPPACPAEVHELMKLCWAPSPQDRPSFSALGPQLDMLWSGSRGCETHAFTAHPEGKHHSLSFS

Sequence of human BTK (Q06187 whole entry): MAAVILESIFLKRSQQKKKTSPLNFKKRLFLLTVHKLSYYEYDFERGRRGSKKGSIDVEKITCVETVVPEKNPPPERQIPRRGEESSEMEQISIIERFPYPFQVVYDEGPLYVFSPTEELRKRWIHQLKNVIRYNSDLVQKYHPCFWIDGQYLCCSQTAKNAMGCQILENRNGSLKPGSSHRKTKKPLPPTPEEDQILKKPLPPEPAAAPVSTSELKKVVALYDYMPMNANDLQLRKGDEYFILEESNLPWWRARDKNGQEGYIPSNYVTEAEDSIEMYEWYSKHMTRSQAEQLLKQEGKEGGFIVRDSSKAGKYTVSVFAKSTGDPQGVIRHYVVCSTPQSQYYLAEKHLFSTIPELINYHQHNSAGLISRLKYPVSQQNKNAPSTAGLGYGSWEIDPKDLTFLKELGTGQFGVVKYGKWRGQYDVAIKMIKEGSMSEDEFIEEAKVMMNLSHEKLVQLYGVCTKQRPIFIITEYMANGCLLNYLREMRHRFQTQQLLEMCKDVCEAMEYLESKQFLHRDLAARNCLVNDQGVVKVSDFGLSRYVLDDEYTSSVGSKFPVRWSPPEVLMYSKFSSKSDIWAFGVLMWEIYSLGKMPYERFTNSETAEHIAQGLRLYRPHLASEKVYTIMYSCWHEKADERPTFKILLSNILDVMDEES

| Structure (SMILES) | IC50 (human BTK) | IC50 (JAK3) | IC50 (human JAK3) |
| --- | --- | --- | --- |
| C=CC(=O)N1C[C@H](Nc2nc(Nc3cnn(CC)c3)nc3[nH]ccc23)CC[C@@H]1C [Example 2, 1-((2S,5R)-5-((2-((1-ethyl-1H-pyrazol-4-yl)amino)-7H-pyrrolo[2,3-d]pyrimidin-4-yl)amino)-2-methylpiperidin-1-yl)prop-2-en-1-one] | 1.3 nM | 360 nM | 0.4 nM |
| C=CC(=O)N1C[C@H](Nc2nc(Nc3cnn(C4CC4)c3)nc3[nH]cc(Cl)c23)CC[C@@H]1C [Example 9, 1-((2S,5R)-5-((5-chloro-2-((1-cyclopropyl-1H-pyrazol-4-yl)amino)-7H-pyrrolo[2,3-d]pyrimidin-4-yl)amino)-2-methylpiperidin-1-yl)prop-2-en-1-one] | 2 nM | – | 0.3 nM |
| C=CC(=O)N1C[C@H](Nc2nc(Nc3cnn(C4CCCC4)c3)nc3[nH]ccc23)CC[C@@H]1C [Example 4, 1-((2S,5R)-5-((2-((1-cyclopentyl-1H-pyrazol-4-yl)amino)-7H-pyrrolo[2,3-d]pyrimidin-4-yl)amino)-2-methylpiperidin-1-yl)prop-2-en-1-one] | 5.4 nM | – | 2.2 nM |
| C=CC(=O)N1C[C@H](Nc2nc(Nc3cnsc3)nc3[nH]cc(Cl)c23)CC[C@@H]1C [Example 6] | 3.4 nM | – | 0.6 nM |
| C=CC(=O)N1C[C@H](N(C)c2nc(Nc3cnn(CC)c3)nc3[nH]nc(Cl)c23)CC[C@@H]1C [Example 11, 1-((2S,5R)-5-((3-chloro-6-((1-ethyl-1H-pyrazol-4-yl)amino)-1H-pyrazolo[3,4-d]pyrimidin-4-yl)(methyl)amino)-2-methylpiperidin-1-yl)prop-2-en-1-one] | 0.9 nM | – | 5.7 nM |

Further compounds by falling IC50 (human BTK), results first:

| IC50 (human BTK) | IC50 (JAK3) | IC50 (human JAK3) | Structure (SMILES) |
| --- | --- | --- | --- |
| 5.3 nM | – | 1.2 nM | C=CC(=O)N1C[C@H](Nc2nc(Nc3cnn(CCNC(=O)OC(C)(C)C)c3)nc3[nH]ccc23)CC[C@@H]1C [Example 5] |
| 3.5 nM | – | 1.8 nM | C=CC(=O)N1C[C@H](Nc2nc(Nc3cnn(CC(C)C)c3)nc3[nH]ccc23)CC[C@@H]1C [Example 3, 1-((2S,5R)-5-((2-((1-isobutyl-1H-pyrazol-4-yl)amino)-7H-pyrrolo[2,3-d]pyrimidin-4-yl)amino)-2-methylpiperidin-1-yl)prop-2-en-1-one] |
| 1.6 nM | – | 0.3 nM | C=CC(=O)N1C[C@H](Nc2nc(Nc3cnn(CC(F)F)c3)nc3[nH]cc(Cl)c23)CC[C@@H]1C [Example 7, 1-((2S,5R)-5-((5-chloro-2-((1-(2,2-difluoroethyl)-1H-pyrazol-4-yl)amino)-7H-pyrrolo[2,3-d]pyrimidin-4-yl)amino)-2-methylpiperidin-1-yl)prop-2-en-1-one] |
| 1.2 nM | 90.9 nM | 0.3 nM | C=CC(=O)N1C[C@H](Nc2nc(Nc3cnn(CC)c3)nc3[nH]cc(Cl)c23)CC[C@@H]1C [Example 1, 1-((2S,5R)-5-((5-chloro-2-((1-ethyl-1H-pyrazol-4-yl)amino)-7H-pyrrolo[2,3-d]pyrimidin-4-yl)amino)-2-methylpiperidin-1-yl)prop-2-en-1-one] |

— patent publication US11407754B2, “Substituted piperidines as kinase inhibitors” (Daewoong Pharmaceutical Co., Ltd., priority 2017, dated 2022)
